How the values were obtained:
[1] = tested on: IOP of A3 subtype adenosine receptor (A3AR)-null mice; conditions: published reports; cited from earlier work
[2] = target: T1, recombinant human A2B receptors (Homo sapiens, UniProt P29275); experiment: Radioligand binding to recombinant human A2B receptors; conditions: 10 μM
T1 sequence (P29275 1-332): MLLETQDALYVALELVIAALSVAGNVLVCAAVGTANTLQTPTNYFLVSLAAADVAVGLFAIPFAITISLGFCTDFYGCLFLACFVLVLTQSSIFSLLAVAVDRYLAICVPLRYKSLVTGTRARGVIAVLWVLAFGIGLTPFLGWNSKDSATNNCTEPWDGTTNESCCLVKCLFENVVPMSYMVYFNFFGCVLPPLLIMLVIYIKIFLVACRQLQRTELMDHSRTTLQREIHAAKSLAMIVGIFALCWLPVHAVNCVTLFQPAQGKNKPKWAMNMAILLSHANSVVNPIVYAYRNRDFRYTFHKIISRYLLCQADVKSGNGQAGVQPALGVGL

human A1 receptors = target: T2, human A1 receptors (Homo sapiens, UniProt P30542); conditions: literature; read-out: Ki for the binding to human A1 receptors; cited from earlier work
T2 sequence (P30542 1-326): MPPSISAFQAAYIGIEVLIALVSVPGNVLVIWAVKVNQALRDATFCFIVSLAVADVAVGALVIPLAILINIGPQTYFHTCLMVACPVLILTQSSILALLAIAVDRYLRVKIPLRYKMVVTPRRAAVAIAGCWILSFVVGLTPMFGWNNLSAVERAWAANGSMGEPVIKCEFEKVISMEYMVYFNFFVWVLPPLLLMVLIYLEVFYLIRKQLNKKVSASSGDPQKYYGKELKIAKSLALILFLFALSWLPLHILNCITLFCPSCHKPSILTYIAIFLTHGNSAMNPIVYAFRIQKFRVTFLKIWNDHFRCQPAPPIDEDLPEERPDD

human A2A receptors = human A2A receptors (Homo sapiens, UniProt P29274); conditions: literature; read-out: Ki for the binding to human A2A receptors; cited from earlier work
mouse IOP = experiment: Mouse IOP after topical application, invasive servo-null micropipette system (SNMS); assay type: in vivo, Black Swiss mice; conditions: after topical application
Procedure, shortened: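 Black Swiss outbred mice, 7-9 weeks, under i.p. ketamine plus topical proparacaine. Drugs applied topically as droplets with <2% DMSO (none for hydrophilic compounds) and 0.0005% benzalkonium chloride, 295-300 mOsm. IOP measured invasively by servo-null micropipette 10 min after a single application.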

Sequence of human A2A receptors (P29274 whole entry): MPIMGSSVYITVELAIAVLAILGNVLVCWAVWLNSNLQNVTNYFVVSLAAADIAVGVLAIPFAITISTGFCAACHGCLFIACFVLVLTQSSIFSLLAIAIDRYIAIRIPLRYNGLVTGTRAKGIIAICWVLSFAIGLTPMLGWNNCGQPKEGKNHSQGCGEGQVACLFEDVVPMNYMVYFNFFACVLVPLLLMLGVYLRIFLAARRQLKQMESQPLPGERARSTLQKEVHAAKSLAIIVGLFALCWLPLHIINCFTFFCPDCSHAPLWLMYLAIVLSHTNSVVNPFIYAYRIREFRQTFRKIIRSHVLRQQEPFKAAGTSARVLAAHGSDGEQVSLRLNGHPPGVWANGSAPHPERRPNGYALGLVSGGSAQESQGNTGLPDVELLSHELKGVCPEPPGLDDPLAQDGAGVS

Structure (SMILES): CCOC(=O)C1=C(C)NC(c2ccccc2)=C(C(=O)OCc2ccccc2)C1C#Cc1ccccc1 (racemic) [MRS-1191, 3-ethyl 5-benzyl-2-methyl-6-phenyl-4-phenylethynyl-1,4-(±)-dihydropyridine-3,5-dicarboxylate]
- response of IOP of A3AR-null mice [1]: unresponsive
- displacement of radioligand binding [2]: did not displace radioligand binding
- Ki (human A1 receptors): 40.1 µM
- Ki (human A2A receptors): > 100 µM
- time to begin to lower IOP, invasive servo-null technique (mouse IOP): within about a minute

Reference: US20090258836A1, “EFFECTIVE DELIVERY OF CROSS-SPECIES A3 ADENOSINE-RECEPTOR ANTAGONISTS TO REDUCE INTRAOCULAR PRESSURE” (The Trustees of The University of Pennsylvania, priority 2006, published 2009)
